The kinact/KI is the second-order rate constant of inactivation. In general, kinact refers to the maximal first-order rate at which the target is inactivated. As usually defined, the IC50 is the concentration that gives 50% inhibition.

Read-outs that look alike come from different tables or passages of the source.

The target of assay [1] is T1, hTEAD4 (acylated) with YAP (Homo sapiens, UniProt Q15561).
T1 construct: N-terminal His6-tagged hTEAD4^217–434 was subcloned; made in house; host or cells: Escherichia coli BL21-CodonPlus (DE3)-RIPL
Briefly: FP-based competitive TEAD–YAP interaction assay (FITC-hYAP50–100). In kind it is binding. How it is done:
(§1) All the TEAD–YAP binding experiments were performed in phosphate-buffered saline (PBS) (pH 7.5).
(§2) To serially diluted solution of the tested compounds in 5 μL of PBS, freshly prepared 5 μL of protein solution was added and incubated at room temperature for 10 min followed by addition of 5 μL of FAM-YAP^50–100 solution. The assay plate was shaken at room temperature for 1 h before measuring the FP (Ex/Em: 485/535 nm). Final protein and FAM concentrations are as follows (FAM/protein): hTEAD4 (nonacylated): 2 nM/5 nM, hTEAD4 (acylated): 3 nM/15 nM, mTEAD4_Cys360Ser: 10 nM/50 nM, and mTEAD4_Cys360Ala: 10 nM/50 nM.

For assay [2], the target named is T2, mTEAD4 Cys360Ala with YAP (Mus musculus, UniProt Q62296, C360A).
T2 construct: N-terminal His6- and MBP-tagged mTEAD4^209–427 with Cys360Ala mutation; made in house; host or cells: E. coli BL21-CodonPlus (DE3)-RIPL
The assay is described as above. The assay is classed as binding. How it is done:
as §1, §2

Assay [3] deals with T3, mTEAD4 Cys360Ser with YAP (Mus musculus, UniProt Q62296, C360S).
T3 construct: His (N); made in house
The assay is described as above. In kind it is binding. How it is done:
as §1, §2

The target in assay [4] is T4, hTEAD4 (nonacylated) (Homo sapiens, UniProt Q15561).
T4 construct: N-terminal His6-tagged hTEAD4^217–434 was subcloned; made in house; host or cells: Escherichia coli BL21-CodonPlus (DE3)-RIPL
Briefly: Time-dependent inhibition, FP (central pocket binding) assay. How it is done:
To serially diluted solution of the tested compounds in 5 μL assay buffer [HEPES (25 mM) and NaCl (150 mM), pH 6.5 buffer], freshly prepared 5 μL of 0.15 μM protein solution was added and incubated at room temperature for 10 min followed by 5 μL of 30 nM FITC-palmitate solution, giving 15 μL final assay volume, 50 nM protein, and 10 nM tracer. The assay plate was shaken at room temperature for 1 h before measuring the FP (Ex/Em: 485/535 nm).
TDI of hTEAD4 (nonacylated) by compound 19 was monitored in FP (central pocket binding) and thiol conjugation assays at 5–7 different concentrations (0.15–40 μM) following 1, 2, 4, and 24 h incubation at 4 °C (mean ± SD; n = 2). By fitting the percent of inhibition versus preincubation time at different concentrations, kobs was calculated. Next, kobs was plotted against concentration and was further fitted to a nonlinear regression model to determine the kinetic parameters of covalent inhibition of hTEAD4, where plateau is showing kinact (min^–1) and t1/2 is Ki (μM).

A further assay has as its target T5, hTEAD2 (Homo sapiens, UniProt Q15562).
T5 construct: N-terminal His6-tagged hTEAD4^217–447 was subcloned; His6 (N); made in house; host or cells: E. coli (as described for N-His hTEAD4)
The assay is described as follows: Thiol conjugation assay, TEAD homologues. In kind it is binding. The settings on record: read-out: TEAD2 IC50. How it is done:
(§3) To serially diluted solutions of the tested compounds in 5 μL of assay buffer [HEPES (25 mM) and NaCl (150 mM) pH 6.5], freshly prepared 5 μL of 0.45 μM protein solution was added and incubated at room temperature for 10 min, followed by addition of 5 μL of 0.45 μM CPM solution, giving a 15 μL final assay volume, 150 nM protein, and 150 nM CPM. The assay plate was shaken at room temperature for 1 h before measuring the fluorescence (Ex/Em: 380/470 nm). Compound 19 was used as an internal standard to determine 100% inhibition.

A further assay deals with T6, hTEAD3 (Homo sapiens, UniProt Q99594).
T6 construct: N-terminal His6-tagged hTEAD4^216–434 was expressed; His6 (N); made in house
Briefly: Thiol conjugation assay, TEAD homologues. In kind it is binding. The settings on record: read-out: TEAD3 IC50. The method, then: as §3

A further assay concerns hTEAD1–4. Briefly: Thiol conjugation assay, TEAD homologues (range over all four). In kind it is binding, human. How it is done: as §3
A further assay concerns the target T7, hTEAD4 (acylated) (Homo sapiens, UniProt Q15561).
T7 construct: N-terminal His6-tagged hTEAD4^217–434 was subcloned; made in house; host or cells: Escherichia coli BL21-CodonPlus (DE3)-RIPL
The assay is described as follows: Whole-protein ESI–MS of covalent modification. The assay is classed as binding. The settings on record: hTEAD4 not treated with hydroxylamine. The method, then:
(§4) The protein solution (1 μL 5 μM) was injected to UPLC-MS (ThermoScientific_UltiMate 3000 LC coupled to a Velos Pro MS) through a desalting column (MassPREP Online desalting, 2.1 × 10 mm). For reactions, 1 μM of the protein was incubated at room temperature for 1 h with 8 equiv of the compound in HEPES (25 mM) and NaCl (150 mM) pH 6.5 buffer. Then, the mixture was centrifuged before injecting 5 μL. The deconvolution of m/z values was performed using Promass Xcalibur software.

The target in assay [5] is T4, hTEAD4 (nonacylated). The assay is described as follows: Whole-protein ESI–MS of covalent modification. The assay is classed as binding. The settings on record: 8 equiv of compound, 1 h, rt. How it is done: as §4

T4 sequence (Q15561 217-434): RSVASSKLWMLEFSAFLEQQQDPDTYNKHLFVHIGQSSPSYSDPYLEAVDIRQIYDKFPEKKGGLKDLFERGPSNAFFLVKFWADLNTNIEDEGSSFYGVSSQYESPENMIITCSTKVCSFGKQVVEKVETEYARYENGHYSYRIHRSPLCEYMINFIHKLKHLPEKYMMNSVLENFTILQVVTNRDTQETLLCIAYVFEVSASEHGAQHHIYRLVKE
T2 sequence (Q62296 209-427 C360A): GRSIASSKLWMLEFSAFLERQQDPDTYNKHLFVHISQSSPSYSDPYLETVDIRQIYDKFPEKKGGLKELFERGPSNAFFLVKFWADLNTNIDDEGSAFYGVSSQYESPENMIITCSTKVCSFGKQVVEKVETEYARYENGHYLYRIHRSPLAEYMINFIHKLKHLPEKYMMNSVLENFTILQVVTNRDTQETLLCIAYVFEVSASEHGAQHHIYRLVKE
T1 sequence (Q15561 217-434): as the sequence (Q15561 217-434) above
T7 sequence (Q15561 217-434): as above
T5 sequence (Q15562 217-447): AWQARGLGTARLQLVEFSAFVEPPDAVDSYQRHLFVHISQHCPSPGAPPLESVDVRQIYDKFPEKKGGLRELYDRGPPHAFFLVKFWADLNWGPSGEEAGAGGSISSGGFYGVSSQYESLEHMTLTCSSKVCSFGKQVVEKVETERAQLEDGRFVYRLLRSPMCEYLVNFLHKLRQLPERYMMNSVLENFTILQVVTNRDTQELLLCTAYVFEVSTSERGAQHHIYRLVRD
T3 sequence (Q62296 210-427 C360S limits assumed): as the sequence (Q15561 217-434) above, with V3I, Q19R, G35S, A48T, D67E, E91D, S96A, S142L, C151S counted along it
T6 sequence (Q99594 216-434): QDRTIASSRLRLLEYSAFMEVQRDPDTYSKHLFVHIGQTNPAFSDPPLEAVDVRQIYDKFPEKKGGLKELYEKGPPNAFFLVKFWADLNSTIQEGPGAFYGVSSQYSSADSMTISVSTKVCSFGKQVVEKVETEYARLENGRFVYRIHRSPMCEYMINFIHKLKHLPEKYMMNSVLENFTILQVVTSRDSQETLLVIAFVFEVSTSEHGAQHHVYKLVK

Consider `O=c1cc(CO)oc(C(Nc2ccccc2)c2ccccc2)c1O` (centres unmarked) [Compound 19, 3-Hydroxy-6-(hydroxymethyl)-2-(phenyl(phenylamino)methyl)-4H-pyran-4-one], for which the “inhibition of the interaction of YAP with TEAD” value in [1], in assay [2] and in assay [3] was “did not inhibit” each time. In addition, the kinact/KI on hTEAD4 (nonacylated) [4] (FP assay) was 66.7 M⁻¹ s⁻¹. For the same compound, the kinact was 0.0015 s⁻¹ on hTEAD4 (nonacylated) [4] (FP, read-out: kinact (converted)) and 0.00015 s⁻¹ on hTEAD4 (nonacylated) [4] (supplementary CSV, read-out: Kinact Fluorescence Polarization (converted)). Besides, the figures for the half-inhibitory concentration (IC50) on hTEAD2, on hTEAD3 and in the assay on hTEAD1–4 were 6.9 µM, 4.6 µM and 2.6 to 6.9 µM, respectively. The “adduct formation with acylated protein (whole-protein ESI–MS)” value at hTEAD4 (acylated) was “did not result in the formation of an acylated hTEAD4-19 adduct”. For the same compound, the “modification of the protein (whole-protein ESI–MS)” value on hTEAD4 (nonacylated) [5] is listed as “modification of the protein (+230 Da) was observed”.
